In patent US11046657B2, “Pyrimidinone derivatives and uses thereof to neutralize the biological activity of chemokines” (Centre National de la Recherche Scientifique (CNRS), priority 2016, dated 2021):
Entries after “also recorded” stand apart in the source; their conditions may differ.

Columns and labels:
[1] = test system: Balb/c mice sensitized to ovalbumin; test: 8-day murine model of allergic eosinophilic airway inflammation; assay type: in vivo, mouse; conditions: for IC50 on eosinophil recruitment: intranasal, 2 h before each challenge, in PBS/Cdx, bronchoalveolar lavage 24 h after last challenge
Description: In vivo dose-response effect of a topical treatment with chalcone-4 and compound (1) of formula (I) in an 8-day mouse model of allergic eosinophilic airway inflammation. Balb/c mice were sensitized to ovalbumin (OVA, 50 μg) in the presence of 2 mg alum (IP. injection on days 0, 1 and 2) and challenged with OVA (10 μg) or saline (IN.) on days 6, 7 and 8. Increasing doses of chalcone-4 (gray line) or compound (1) (black line) solubilized in 10% hydroxypropyl-B-cyclodextrine (Cdx) were administered by the intranasal route 2 h before each challenge. Bronchoalveolar lavage was performed 24 h after the last challenge, and inflammatory cells including eosinophils counted. The percentage of inhibition of eosinophil recruitment is shown. Data points are means and bars are S.E.M. values of n=6 determinations.
The in vivo activity of compound (1) was tested in the 8-day murine model of allergic eosinophilic airway inflammation previously described^13.
Briefly, Balb/c mice were sensitized to ovalbumin (OVA) and challenged 3 times with OVA or saline at 24 h interval. Treatments with each compound (300 nmol/kg in 10% PBS/Cdx) were administered by the intranasal route 2 h before each challenge. Bronchoalveolar lavage was performed 24 h after the last challenge, and eosinophil, macrophage, neutrophil and lymphocyte numbers quantified.
Using the same protocol, the dose-response of compound (1) and chalcone-4 was evaluated on eosinophil recruitment after intranasal administration (FIG. 1).

[2] = test system: Balb/c mice topically administered MC903; test: Murine model of atopic dermatitis induced by MC903; assay type: in vivo, mouse; conditions: 350 μmol/kg topical in acetone/olive oil, 2 h before each MC903 application, D1-D13
Description: FIG. 2A. In vivo effect of a topical treatment with chalcone 4 and compound (1). Mouse ears were treated with MC903 (calcipotriol, 2 nmol/ear or 4 nmol/ear) or its solvent (ethanol EtOH) together with 350 μmol/kg chalcone 4 (upper row of images) or compound (1) (lower row of images) or solvent (acetone/olive oil 50/50, AOO). Chalcone 4 and compound (1) were dissolved in AOO and administered topically 2 h before each MC903 application. MC903 was dissolved in EtOH and topically applied.
FIG. 2B. Increase in ear thickness over time (D1-D13) was determined with a caliper on animals treated with MC903 or solvent (EtOH), and compound (1) or solvent (AOO) as described for FIG. 2A. Data points are means and bars are S.E.M. values of n=6 determinations.
FIG. 2C. Increase in ear thickness over time (D1-D13) was determined with a caliper on animals treated with MC903 or solvent (EtOH) and […] or solvent (AOO). Data points are means and bars are S.E.M. values of n=6 determinations.
The in vivo activity of compound (1) was tested in a murine model of atopic dermatitis as previously described (Zhang et al, Proc Nat Acad Si USA 2009, 106, 1536-41). Briefly, Balb/c mice were topically administered with a vitamin D analogue, MC903 (2 or 4 nmol/ear) every other day for 13 days. […]

[3] = test system: SuHx Wistar rats; test: SU-5416/Hypoxia rat model of pulmonary hypertension; assay type: in vivo; conditions: 100 mg/kg/day i.p.; for Pulmonary vascular remodeling: H&E and alpha-SMA staining of lung sections; for Total pulmonary vascular resistance (TPVR): curative protocol, vs vehicle-treated SuHx rats
Description: FIG. 6A: In vivo effect of chalcone-4 and compound (1) in the SU-5416 (20 mg/kg)/Hypoxia (SuHx) rat model of PH on total pulmonary vascular resistance, cardiac output and right ventricular hypertrophy. Male Wistar rats (100 g upon arrival in the laboratory; Janvier Labs, France) served as experimental subjects. SU-5416 (20 mg/kg) was injected subcutaneously and the rats were placed in normobaric hypoxia (10% FiO2) for 3 weeks for PH to develop, and were then left for 2 weeks in normoxia. Rats were treated either with chalcone-4 or compound (1) at a dose of 100 mg/kg i.p. as compared with vehicle-treated SuHx rats. In addition, a group of healthy rats with no PH were used as the control group (CTR). The total pulmonary vascular resistance (TPVR), cardiac output (CO), right ventricular hypertrophy (RVH) assessed by the Fulton index [right/(left+septum) ventricular weight] were obtained in CTR and SuHx rats treated with chalcone-4 and compound (1). The bar graph represents means SEM. *** p-value <0.001, **** p-value <0.0001 versus CTR rats. # p-value <0.05,### p-value <0.001 versus vehicle-treated SuHx rats.
The activity of compound (1) vs chalcone-4 was evaluated in an animal model of pulmonary hypertension (PH) (by convention, animal models are still referred to as having PH rather than PAH): the SU-5416 (20 mg/Kg)/Hypoxia rat model. Chalcone-4 and compound (1) (100 mg/kg/day) were prepared in carboxymethylcellulose (CMC 1% in saline) and administered I.P. Rats were treated for 3 weeks in a curative protocol, and were then left for 2 weeks in normoxia. An additional group of healthy rats with no PH was used as the control group (CTR).
PH was induced by a single subcutaneous injection of SU5416 (20 mg/kg) in Wistar rats, followed by a 3-week exposure to chronic hypoxia (10% FiO2). Right ventricular structure and function was assessed by echocardiography using the GE Vivid 9 ultrasound. Before treatment begins, echocardiography measurements of each rat have been performed to validate the presence of PH in animals (acceleration time/ejection time). Then, the rats were randomized by numbering the animals from 1 to 4 in each cage at the beginning of the study, and then looking at a random number table. Each rat has been treated by intraperitoneal administration. At the end of the treatment period, a right heart catheterization (RHC) was performed to determine the PH severity and the cardiac function.
Animals were anesthetized with isoflurane. A polyvinyl catheter was introduced into the right jugular vein and pushed through the right ventricle into the pulmonary artery. Cardiac output in rats was measured using the thermodilution method.
After measurement of hemodynamic parameters, the thorax was opened and the left lung immediately removed and frozen. The right lung was fixed in the distended state with formalin buffer. The right ventricular hypertrophy assessed by the Fulton index [weight ratio of right ventricle (RV) and (left ventricle (LV)+septum)] and the percentage of wall thickness [(2× medial wall thickness/external diameter)×100] and of muscularized vessels were determined as previously described^21.
Histological sections were stained with hematoxylin and eosin, and immunohistochemistry for alpha-smooth muscle actin was performed as previously described^1′. Images were taken with a microscope Nikon Eclipse 80i and NIS-Elements BR 2.30 software.

[4] = vs SuHx rats treated with vehicle or chalcone-4

Row | SMILES | IC50 on eosinophil recruitment [1] | Atopic response to MC903 (ear thickness) [2] | Pulmonary vascular remodeling [3] | Total pulmonary vascular resistance (TPVR) [3] | Recruitment of eosinophils ([1]; 300 nmol/kg, intranasal route, n=6) | Cardiac output [3, 4] | Fulton index (right ventricular hypertrophy) [3, 4]
1 | COc1cc(/C=C/C(=O)c2ccc(Cl)cc2)ccc1O [Chalcone-4, (E)-1-(4-Chlorophenyl)-3-(4-hydroxy-3-methoxyphenyl)prop-2-en-1-one, reference compound] | higher than 500 nmol/kg | totally abolished the atopic response to MC903 | substantially attenuated the pulmonary vascular remodeling | substantial decrease | – | – | –
2 | COc1cc(-c2cc(-c3ccc(Cl)cc3)nc(=O)[nH]2)ccc1O [compound (1), 4-(4-Chlorophenyl)-6-(4-hydroxy-3-methoxyphenyl)pyrimidin-2(1H)-one] | 300 nmol/kg | inhibits atopic dermatitis induced by MC903; also recorded: totally abolished the atopic response to MC903 | substantially attenuated the pulmonary vascular remodeling | substantial decrease | inhibits the recruitment of eosinophils | substantial increase | significant decrease
